Reference: US11786500B2, “Glutaminase inhibitor therapy” (Board of Regents, The University of Texas System, priority 2017, dated 2023)
“Also recorded” adds a separate entry of the source. Where two headings read alike, the source gives them in different places.

Columns and labels:
[1] = test system: OVCAR8; test: Cell viability / proliferation assay (Cell Titer Glo, 72 h); assay type: cell-based
Method: (§4) Cells were allowed to settle and attach overnight. Cells plated in triplicate for each concentration and control examined. […] Cells were incubated with compound or relevant controls for 72 hours. On Day 4, 72 hours after treatment, cells were analyzed by Cell Titer Glo (PromegaG7573) per manufacturer's instructions. Plates were read in luminescence mode on a PheraStarFS plate reader. Data was collected, replicates were averaged, standard deviations calculated and analyzed through nonlinear regression analysis with four (4) parameters to generate IC50s for each cell line tested.

[2] = test system: OVCAR420; test: cells
Method: Cell culture media: All cells were grown in RPMI-1640 (Gibco11875-119) with 2 mM Glutamine+10% FBS (Gibco16000-044) unless otherwise noted.
Cells were plated in black, 96-well Corning Costar 3603 at densities to allow for Log phase growth throughout the experiment (see table below) on Day 0. Cells were allowed to settle and attach overnight. Cells plated in triplicate for each concentration and control examined. […] Cells were incubated with compound or relevant controls for 72 hours. On Day 4, 72 hours after treatment, cells were analyzed by Cell Titer Glo (PromegaG7573) per manufacturer's instructions. Plates were read in luminescence mode on a PheraStarFS plate reader. Data was collected, replicates were averaged, standard deviations calculated and analyzed through nonlinear regression analysis with four (4) parameters to generate IC50s for each cell line tested.

[3] = test system: OVCAR8 and OVCAR420 cells; test: DNA damage staining and quantification (γH2AX foci); assay type: cell-based; conditions: 48 hours
Method: Cells were then fixed using 4% Paraformaldehyde and permeabilized using 0.5% TritonX100. Fixed cells were stained with Anti-γH2AX, rabbit (Bethyl IHC-00059) (1:500) for 2 h at 37 C. The secondary antibody used was Alexa Fluor 546 donkey anti-rabbit (Invitrogen A10040) (1:150) simultaneously with Hoechst 33342, Trihydrochloride, Trihydrate (Invitrogen, H3570) (1:1000) for 1 h at 37 C. DNA damage was measured as a γH2AX signal per nucleus using PerkinElmer High Content Screening System Operetta with the Harmony software. First, nuclei were selected using Hoechst staining. Then, single cells were gated based on nucleus size and shape. Apoptotic and mitotic cells were excluded based on maximum Hoechst intensity in the nucleus. DNA damage foci were identified within the gated nuclei using the “find spots in Alexa 546 channel” analysis block. Finally, the total intensity of Alexa 546 within all “spots” in the nucleus, or the total number of spots in the nucleus, averaged per cell, was calculated.
GLS-1 inhibition induces oxidative stress that leads to accumulation of DNA damage. […] Moreover, we observed an accumulation of γH2AX foci, a marker of DNA damage, and the likely cause of anti-proliferative effects observed upon GLS-1 inhibition (FIG. 11).

[4] = test system: IGROV1; test: Cell viability / proliferation assay (Cell Titer Glo, 72 h); assay type: cell-based
From the text: (§1) Cells were allowed to settle and attach overnight.

[5] = test system: A2780; test: as above; assay type: cell-based
From the text: as §1

[6] = test system: OVCAR4; test: as above; assay type: cell-based
From the text: as §1

[7] = test system: OVCAR8, OVCAR429, OVCAR4, and IGROV1 cells; test: Metabolomics (LC-MS/MS metabolic profiling); assay type: cell-based; conditions: 1 μM, 24 hours; muted or absent in non-responder lines
Method: OVCAR8 cells were plated at 3×10^6 cells per 10 cm dish and OVCAR429, IGROV1, and OVCAR4 were plated at 3.5×10^6 cells per 10 cm dish 24 hours (24 h) prior to treatment. […] On day 1 (d.1), 2 hours (2 h) prior to harvest, samples were washed with 5 mL media containing 10% dialyzed FBS. 10 mL of media was added to plates and plates were returned to the incubator for 2 h. Media was then aspirated from plates and 4 mL of 80% chilled MeOH (−80° C.) was immediately added. Plates were incubated at −80° C. for 15 minutes. Cells were then scraped with cell scraper to release cells while keeping plates on dry ice. The MeOH/cell lysate mixture was collected and transferred to conical tubes on dry ice. Tubes were centrifuged at full speed in 4° C. chilled centrifuge for 5 minutes. Supernatant was transferred to another set of conical tubes on dry ice by decanting. The remaining pellet was re-suspended in 500 μL of cold MeOH and the mixture was moved to a microcentrifuge tube. Microfuge tubes were spun at full speed for 5 minutes in 4° C. chilled microcentrifuge. […]
Differentially abundance analysis of metabolite levels was carried out using a moderated t-test function from Bioconductor's limma package (Smyth 2005). […] The normalization factor was calculated by first defining a vector, Nmed, to be the median peak area for each metabolite across a set of samples. […]

[8] = test system: responder cells OVCAR420, OVCAR429; test: Analysis of reactive oxygen species production (CM-H2DCFDA, flow cytometry); assay type: cell-based; conditions: 1 μM, 48 hours
Method: One day prior to the experiment, OVCAR-8 and OVCAR420 cells were seeded in 6 well dishes (250,000 cells per well). […] The following day, an allocated well was treated with hydrogen peroxide for 20-30 minutes as a positive control for ROS generation. All wells were then stained with CM-H2DCFDA (5 μM, Life Technologies) for 30 minutes at 37° C., washed with 1×PBS, harvested by trypsinization, and re-suspended in 400 μl phenol-free RPMI medium. Cells were strained through a […] cell strainer and analyzed using a flow cytometer (LSR Fortessa).
For each condition, calculation of mean fluorescence intensity allows for the comparison of ROS accumulation between control and treated samples. Shown are responder cells: (a) OVCAR420; (b) OVCAR429, with GFP-A on the x-axis, and count on the y-axis.

[9] = test system: OVCAR429; test: Cell viability / proliferation assay (Cell Titer Glo, 72 h); assay type: cell-based
Method: as §4

[10] = test system: OVCAR8; test: Analysis of glutathione levels (GSH-Glo); assay type: cell-based; conditions: OVCAR8, 1 μM, 24 hours
Method: (§2) Analysis of Glutathione Levels: Cells were plated in 96-well Corning Costar 3603 at 10,000 cells/well on Day 0. Cells were allowed to settle and attach overnight. […] Cells were incubated with compound or relevant controls for 24 hours. On Day 2, 24 hours after treatment, cells were analyzed by GSH-Glo (PromegaV6912) per manufacturer's instructions. […] Duplicate wells were plated and then stained with crystal violet in order to correct for differences in cell growth as described below.
(§3) GLS-dependence is driven by addiction to glutamine-dependent, glutathione-mediated redox maintenance in OVCA responder cell lines. […] Consistent with this hypothesis, GLS-1 inhibition induced a significant decrease in intracellular glutathione and a concurrent increase in reactive oxygen species (FIGS. 7 and 8) in responder lines.

[11] = test system: OVCAR4; test: Analysis of glutathione levels (GSH-Glo); assay type: cell-based; conditions: OVCAR4 (non-responder), 24 hours
Method: as §2, §3

[12] = test system: OVCAR429; test: Analysis of glutathione levels (GSH-Glo); assay type: cell-based; conditions: OVCAR429, 1 μM, 24 hours
Method: as §2, §3

[13] = test system: OVCAR420; test: Analysis of glutathione levels (GSH-Glo); assay type: cell-based; conditions: OVCAR420, 1 μM, 24 hours
Method: as §2, §3

[14] = test system: SK-OV-3 cells; test: Orthotopic model of ovarian cancer (SK-OV-3, intraperitoneal); assay type: in vivo, athymic nude mice; conditions: day 21; compared to vehicle or paclitaxel alone
Method: SK-OV-3 cells were injected into the intraperitoneal cavity of athymic nude mice and allow to grow for 7 days. At day 7, animals were treated with the in vivo tool compound to inhibit GLS-1 and animals were monitored for clinical disease signs.

[15] = test system: OVCAR-8 subcutaneous xenografts; test: OVCAR-8 subcutaneous xenograft; assay type: in vivo, athymic mice; conditions: 100 mpk, twice a day, oral gavage, three weeks
Method: OVCAR-8 cells were implanted subcutaneously into athymic mice and allowed to grow into an established tumor. Animals were then treated with compound 2, for three weeks (100 mpk, twice a day) by oral gavage.

[16] = test system: OVCAR-8 tumors; test: Glutamate:glutamine ratio in OVCAR-8 tumor lysates (mass spec); assay type: in vivo; conditions: dosed for 1, 7 or 21 days
Method: OVCAR-8 tumors were dosed for 1, 7 or 21 days and then harvested from animals. Tumor lysates were analyzed by mass spec for the presence of glutamine and glutamate.

[17] = test system: ASNSlow HGSOC patient-derived xenograft; test: ASNSlow HGSOC patient-derived xenograft (PDX) model; assay type: in vivo, NOD/SCID mice; conditions: orally 100 mg/kg, BID for 39 days; p<0.0001 vs vehicle control
Method: The the anti-tumor effects of Compound 2 were tested in vivo in an ASNS^low HGSOC patient-derived xenograft (PDX) model using human tumor tissue that was identified through immunohistochemistry to be ASNS^low and characterized through histological phenotyping to be of a high-grade serous subtype, implanted in to NOD/SCID mice.
Compound 2 inhibits tumor growth of an ASNS^low PDX xenograft as a single agent in NOD/SCID mice (FIG. 23(b)). In this experiment, Compound 2, administered orally at a dose of 100 mg/kg, BID for 39 days inhibited tumor growth (TGI=50%, p<0.0001 for tumor volumes after treatment with Compound 2 vs vehicle control).

IC50 ([1]; Homo sapiens, OVCAR-8, OVCAR8, 72 h, read-out: IC50, viability (relative to DMSO)) [nM] | IC50 [2] [nM] | IC50 [9] [nM] | IC50 ([9]; OVCAR429, 72 h, read-out: IC50, viability (relative to DMSO)) [nM] | SMILES | response, 72 hour viability ([1]; OVCAR8) | DNA damage (γH2AX foci per nuclei) [3] | response, 72 hour viability [4] | response, viability [5] | response, viability [6] | changes in metabolite levels [7] | accumulation of intracellular ROS [8] | response, 72 hour viability ([9]; OVCAR429) | GSH levels [10] | GSH levels [11] | GSH levels [12] | GSH levels [13] | combined nodule weight per animal [14] | tumor growth (tumor volume) [15] | glutamate:glutamine ratio in tumors [16] | TGI (tumor growth inhibition) [17] [%]
13 | 59 | 76 | 59 | O=C(Cc1cccc(OC(F)(F)F)c1)Nc1ccc(CCCCc2nnc(NC(=O)Cc3ccccn3)s2)nn1 [Compound 1, 2-(pyridin-2-yl)-N-{5-[4-(6-{2-[3-(trifluoromethoxy)phenyl]acetamido}pyridazin-3-yl)butyl]-1,3,4-thiadiazol-2-yl}acetamide] | nM sensitivity | induces DNA damage | resistant | no response | resistant; also recorded: no response | decrease in TCA cycle activity | induces an accumulation of ROS | nM sensitivity | significantly decreased | does not show a significant decrease | significantly decreased | significantly decreased |  |  |  | 
 |  |  |  | CNC(=O)c1cn(C[C@H](F)CCc2ccc(NC(=O)Cc3cc(OC4CC(F)(F)C4)cc(C)n3)nn2)nn1 [Compound 2, (R)-1-(4-(6-(2-(4-(3,3-difluorocyclobutoxy)-6-methylpyridin-2-yl)acetamido)pyridazin-3-yl)-2-fluorobutyl)-N-methyl-1H-1,2,3-triazole-4-carboxamide] |  |  |  |  |  |  |  |  |  |  |  |  | robust reduction | significant tumor growth inhibition | altered glutamine metabolism | 50
